One assay addresses CYP11B2 (Homo sapiens (Human), UniProt P19099). Kind of assay: G-402 cellular enzyme assay, human CYP11B2 (aldosterone release). It is filed as cell-based. As to conditions: G-402 cells expressing human CYP11B2, 1 μM Deoxycorticosterone. An excerpt: (§1) The expression plasmids contains the ORF for either human/cyno CYP11B1 or CYP11B2 under the control of a suitable promoter (CMV-promoter) and a suitable resistance marker (neomycin). Using standard techniques the expression plasmid is transfected into G-402 cells and these cells are then selected for expressing the given resistance markers. Individual cell-clones are then selected and assessed for displaying the desired enzymatic activity using 11-Deoxycorticosterone (Cyp 11B2) or 11-Deoxycortisol (Cyp 11B1) as a substrate.
(§2) G-402 cells expressing CYP11 constructs were established as described above and maintained in McCoy's 5a Medium Modified, ATCC Catalog No. 30-2007 containing 10% FCS and 400 μg/ml G418 (Geneticin) at 37° C. under an atmosphere of 5% CO2/95% air. […] For assaying enzymatic activity, cells were plated onto 96 well plates and incubated for 16 h. An aliquot of the supernatant is then transferred and analyzed for the concentration of the expected product (Aldosterone for CYP11B2; Cortisol for CYP11B1). The concentrations of these steroids can be determined using HTRF assays from CisBio analyzing either Aldosterone or Cortisol.
(§3) Inhibition of the release of produced steroids can be used as a measure of the respective enzyme inhibition by test compounds added during the cellular enzyme assay. The dose dependent inhibition of enzymatic activity by a compound is calculated by means of plotting added inhibitor concentrations (x-axes) vs. measured steroid/product level (y-axes). The inhibition is then calculated by fitting the following 4-parameter sigmoidal function (Morgan-Mercer-Flodin (MMF) model) to the raw data points using the least squares method:
(§4) [formula] wherein, A is the maximum y value, B is the EC50 factor determined using XLFit, C is the minimum y value and D is the slope value.
(§5) EC50 values for compounds claimed herein were tested with the G402-based assay system described. Cyp 11B2 enzyme activity was tested in presence of 1 μM Deoxycorticosterone and variable amounts of inhibitors; Cyp 11B1 enzyme activity was tested in presence of 1 μM Deoxycortisol and variable amounts of inhibitors.

A further assay addresses human CYP11B1 (Homo sapiens (Human), UniProt P15538). Kind of assay: G-402 cellular enzyme assay, human CYP11B1 (cortisol release). Type of assay: cell-based. As to conditions: G-402 cells expressing human CYP11B1, 1 μM Deoxycortisol.
Text: as §1, §2, §3, §4, §5

Sequence of CYP11B2 (P19099 25-503): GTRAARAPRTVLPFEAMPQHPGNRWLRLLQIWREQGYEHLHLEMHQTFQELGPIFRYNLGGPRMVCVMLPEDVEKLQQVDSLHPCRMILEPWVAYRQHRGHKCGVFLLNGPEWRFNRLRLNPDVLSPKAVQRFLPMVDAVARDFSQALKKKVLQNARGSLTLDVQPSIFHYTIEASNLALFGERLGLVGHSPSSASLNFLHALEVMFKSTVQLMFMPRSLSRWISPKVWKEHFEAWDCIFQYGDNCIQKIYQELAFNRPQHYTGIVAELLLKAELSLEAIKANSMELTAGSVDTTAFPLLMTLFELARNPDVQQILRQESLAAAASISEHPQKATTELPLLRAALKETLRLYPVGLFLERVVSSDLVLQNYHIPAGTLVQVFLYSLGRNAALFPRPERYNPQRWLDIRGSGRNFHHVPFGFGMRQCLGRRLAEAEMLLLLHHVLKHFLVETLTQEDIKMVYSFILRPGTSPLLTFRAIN
Sequence of human CYP11B1 (P15538 25-503): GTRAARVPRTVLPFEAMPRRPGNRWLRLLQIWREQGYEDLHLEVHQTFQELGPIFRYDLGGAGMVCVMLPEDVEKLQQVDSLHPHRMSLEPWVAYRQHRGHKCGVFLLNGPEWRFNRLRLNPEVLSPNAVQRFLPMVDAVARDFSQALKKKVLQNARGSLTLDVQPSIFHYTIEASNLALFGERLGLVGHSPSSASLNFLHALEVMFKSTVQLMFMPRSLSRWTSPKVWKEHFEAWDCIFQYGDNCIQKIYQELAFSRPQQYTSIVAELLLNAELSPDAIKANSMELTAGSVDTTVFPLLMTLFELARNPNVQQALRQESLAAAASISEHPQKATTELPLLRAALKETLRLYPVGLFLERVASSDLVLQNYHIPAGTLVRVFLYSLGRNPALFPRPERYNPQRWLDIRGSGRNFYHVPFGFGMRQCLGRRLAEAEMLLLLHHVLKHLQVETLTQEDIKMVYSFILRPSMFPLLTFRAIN

With `N#Cc1ccc(-c2cncc3c2CCCC3N)cc1` (racemic) [Example 1, (rac)-4-(8-Amino-5,6,7,8-tetrahydroisoquinolin-4-yl)benzonitrile], the EC50 (usually the concentration needed to bring the measured effect to its halfway point) on CYP11B2 is 42 nM; on human CYP11B1, 173 nM.

For `CCS(=O)(=O)NC1CCCc2c(-c3ccc(C#N)cc3)cncc21` (racemic) [Example 2, (rac)-N-(4-(4-Cyanophenyl)-5,6,7,8-tetrahydroisoquinolin-8-yl)ethanesulfonamide], the figures for the EC50 on CYP11B2 and at human CYP11B1 were 207 nM and 1090 nM, respectively.

`CCCNS(=O)(=O)NC1CCCc2c(-c3ccc(C#N)cc3)cncc21` (racemic) [Example 3, (rac)-N-[4-(4-Cyanophenyl)-5,6,7,8-tetrahydroisoquinolin-8-yl]-N′-propylsulfuric diamide]: the values for the EC50 on CYP11B2 and on human CYP11B1 were 52 nM and 291 nM, respectively.

In the case of `CCNC(=O)NC1CCCc2c(-c3ccc(C#N)cc3)cncc21` (racemic) [Example 4, (rac)-1-(4-(4-Cyanophenyl)-5,6,7,8-tetrahydroisoquinolin-8-yl)-3-ethylurea], the EC50 at CYP11B2 was found to be 220 nM; at human CYP11B1, 2170 nM.

As for `CCC(=O)NC1CCCc2c(-c3ccc(C#N)cc3)cncc21` (racemic) [Example 5, (rac)-N-(4-(4-Cyanophenyl)-5,6,7,8-tetrahydroisoquinolin-8-yl)propionamide], the EC50 at human CYP11B1 was 760 nM.

For `CC(=O)NC1CCCc2c(-c3ccc(C#N)cc3)cncc21` (racemic) [Example 8, (rac)-N-(4-(4-Cyanophenyl)-5,6,7,8-tetrahydroisoquinolin-8-yl)acetamide], the EC50 at CYP11B2 worked out at 43 nM; at human CYP11B1, 422 nM.

With `CCOC(=O)NC1CCCc2c(-c3ccc(C#N)cc3)cncc21` (racemic) [Example 10, (rac)-Ethyl 4-(4-cyanophenyl)-5,6,7,8-tetrahydroisoquinolin-8-ylcarbamate], the EC50 on CYP11B2 is 67 nM; on human CYP11B1, 658 nM.

`N#Cc1ccc(-c2cncc3c2CCCC3O)cc1` (racemic) [Example 11, (rac)-4-(8-Hydroxy-5,6,7,8-tetrahydroisoquinolin-4-yl)benzonitrile]: the EC50 was 8 nM on CYP11B2 and 31 nM on human CYP11B1.

As for `CCNC(=O)OC1CCCc2c(-c3ccc(C#N)cc3)cncc21` (racemic) [Example 12, (rac)-4-(4-Cyanophenyl)-5,6,7,8-tetrahydroisoquinolin-8-yl ethylcarbamate], the results for the EC50 on CYP11B2 and on human CYP11B1 were 25 nM and 30 nM, respectively.

In the case of `COC1CCCc2c(-c3ccc(C#N)cc3)cncc21` (racemic) [Example 13, (rac)-4-(8-Methoxy-5,6,7,8-tetrahydroisoquinolin-4-yl)benzonitrile], the figures for the EC50 on CYP11B2 and at human CYP11B1 were 10 nM and 8 nM, respectively.

On to `Cc1ccc(C2(O)CCCc3c(-c4ccc(C#N)cc4)cncc32)cc1C` (racemic) [Example 14, (rac)-4-(8-(3,4-Dimethylphenyl)-8-hydroxy-5,6,7,8-tetrahydroisoquinolin-4-yl)benzonitrile], for which the EC50 on CYP11B2 came to 16 nM; on human CYP11B1, 73 nM.

For the molecule `CCC(=O)NC1CCc2c(-c3ccc(C#N)cc3)cncc21` (racemic) [Example 17, (rac)-N-(4-(4-Cyanophenyl)-6,7-dihydro-5H-cyclopenta[c]pyridin-7-yl)propionamide], the results for the EC50 at CYP11B2 and on human CYP11B1 were 22 nM and 511 nM, respectively.

For the molecule `CCC(=O)NC1CCCc2c(-c3ccc(F)c(Cl)c3)cncc21` (racemic) [Example 20, (rac)-N-(4-(3-Chloro-4-fluorophenyl)-5,6,7,8-tetrahydroisoquinolin-8-yl)propionamide], the values for the EC50 on CYP11B2 and at human CYP11B1 were 24 nM and 480 nM, respectively.

On to `CCC(=O)NC1CCCc2c(-c3ccc(C(F)(F)F)cc3)cncc21` (racemic) [Example 21, (rac)-N-(4-(4-(Trifluoromethyl)phenyl)-5,6,7,8-tetrahydroisoquinolin-8-yl)propionamide], for which the EC50 came to 82 nM at CYP11B2 and 7090 nM on human CYP11B1.

Take `CCC(=O)NC1CCCc2c(-c3ccc(Cl)cc3)cncc21` (racemic) [Example 24, (rac)-N-(4-(4-Chlorophenyl)-5,6,7,8-tetrahydroisoquinolin-8-yl)propionamide]: the EC50 on CYP11B2 amounted to 31 nM; at human CYP11B1 it was 1420 nM.

For `CCC(=O)NC1CCCc2c(-c3ccc(F)c(C)c3)cncc21` (racemic) [Example 27, (rac)-N-(4-(4-Fluoro-3-methylphenyl)-5,6,7,8-tetrahydroisoquinolin-8-yl)propionamide], the EC50 at CYP11B2 amounted to 14 nM; at human CYP11B1 it was 625 nM.

`CCC(=O)NC1CCCc2c(-c3ccc(C#N)cc3)cncc21` (single isomer, unassigned; (+)) [Example 7, (+)-(R or S)—N-(4-(4-Cyanophenyl)-5,6,7,8-tetrahydroisoquinolin-8-yl)propionamide]: the EC50 on human CYP11B1 turned out to be 263 nM.

Turning to `C[C@@H](O)C(=O)NC1CCCc2c(-c3ccc(C(F)(F)F)cc3)cncc21` (single isomer, unassigned; (+)) [Example 47, (+)-(R)-2-Hydroxy-N—[(R or S)-4-(4-trifluoromethyl-phenyl)-5,6,7,8-tetrahydro-isoquinolin-8-yl]-propionamide], a half-maximal response at CYP11B2 (EC50) required 5750 nM.

`CCC(=O)NC1CCCc2c(-c3ccc(C#N)cc3)cncc21` (single isomer, unassigned; (-)) [Example 6, (−)-(S or R)—N-(4-(4-Cyanophenyl)-5,6,7,8-tetrahydroisoquinolin-8-yl)propionamide] yielded an EC50 at human CYP11B1 of 11700 nM.

`CCC(=O)NC1CCCc2c(-c3ccc(C(F)(F)F)cc3)cncc21` (single isomer, unassigned; (-)) [Example 22, (−)-(S or R)—N-(4-(4-(Trifluoromethyl)phenyl)-5,6,7,8-tetrahydroisoquinolin-8-yl)propionamide]: on CYP11B2, it took 6380 nM to reach a half-maximal effect (EC50).

The molecule `CCC(=O)NC1CCCc2c(-c3ccc(Cl)cc3F)cncc21` (single isomer, unassigned; (-)) [Example 31, (−)-(S or R)—N-(4-(4-Chloro-2-fluorophenyl)-5,6,7,8-tetrahydroisoquinolin-8-yl)propionamide] had an EC50 at CYP11B2 of 1220 nM.

Regarding `CCC(=O)NC1CCc2c(-c3ccc(C(F)(F)F)cc3)cncc21` (single isomer, unassigned; (-)) [Example 50, (−)-(S or R)—N-(4-(4-(Trifluoromethyl)phenyl)-6,7-dihydro-5H-cyclopenta[c]pyridin-7-yl)propionamide], the response on CYP11B2 was half-maximal at 5770 nM (EC50).

For the molecule `C[C@@H](O)C(=O)NC1CCc2c(-c3ccc(C(F)(F)F)cc3)cncc21` (single isomer, unassigned; (-)) [Example 53, (−)-(R)-2-Hydroxy-N—((S or R)-4-(4-(trifluoromethyl)phenyl)-6,7-dihydro-5H-cyclopenta[c]pyridin-7-yl)propanamide], the response at CYP11B2 was half-maximal at 9100 nM (EC50).

For `CCC(=O)NC1CCc2c(-c3ccc(F)c(C)c3)cncc21` (single isomer, unassigned; (-)) [Example 59, (−)-(S or R)—N-(4-(4-Fluoro-3-methylphenyl)-6,7-dihydro-5H-cyclopenta[c]pyridin-7-yl)propionamide], the EC50 at CYP11B2 came out at 1660 nM.

`CCS(=O)(=O)NC1CCc2c(-c3ccc(C(F)(F)F)c(F)c3)cncc21` (single isomer, unassigned; (-)) [Example 72, (−)-(S or R)—N-(4-(3-Fluoro-4-(trifluoromethyl)phenyl)-6,7-dihydro-5H-cyclopenta[c]pyridin-7-yl)ethanesulfonamide] came in with an EC50 on CYP11B2 of 16500 nM.

(Values after patent publication US9187429B2, “Phenyl-tetrahydroisoquinoline derivatives” (Hoffmann-La Roche Inc., priority 2012, dated 2015).)
